Data set [1] deals with Maximal electroshock seizures. Put plainly: Phase VI oral MES test, rats. The class given is in vivo. The conditions noted are these: for responders at 50 mg/kg: Rattus norvegicus. An excerpt:
(§1) Maximal electroshock seizures are elicited with a 60-cycle alternating current of 50 mA intensity (5-7 times that necessary to elicit minimal electroshock seizures) delivered via corneal electrodes for 0.2 seconds. A drop of 0.9% saline is instilled in the eye prior to application of the electrodes in order to […].
(§2) This oral screen is designated as phase VI.

The test system of data set [2] is Maximal electroshock seizures. Put plainly: MES maximal electroshock seizure test, mice ip. It is filed as in vivo. The conditions noted are these: for responders at 100 mg/kg / responders at 300 mg/kg / responders at 3 mg/kg / responders at 10 mg/kg: Mus musculus, ip. The protocol: Three tests were performed:
1. MES--Electroshock Seizure Test
as §1
On the technique in general: In the maximal electroshock model the usual endpoint is tonic extension of the hind limbs.

Data set [3] can be described thus: in vivo. The conditions noted are these: rat, po, 50 mg/kg.
Source text: as §2

Data set [4] in a line: in vivo. The protocol:
The first phase of the ADD Program involved performing tests on male Carworth Farms #1 mice. […] Three tests were performed:
In the second phase of the ADD program protocol, estimates of anticonvulsant activity and neurotoxicity are quantified. The median effective dose (ED50) in the MES, sc Met, and rotorod test is determined. In the case of a compound with apparent activity in only one anticonvulsant test, testing is carried out in the other up to, and in some cases beyond, doses which produce neurological deficit. Compounds which fail to produce minimal neurological deficit are tested whenever possible to doses ten times their lowest anticonvulsant ED50. […] The rotorod ED50 is determined at the time of the peak neurologic deficit.

Data set [5] deals with Subcutaneous Pentylenetetrazol seizure. Put plainly: sc Met subcutaneous pentylenetetrazol (Metrazol) seizure test, mice. The class given is in vivo. The conditions noted are these: for responders at 100 mg/kg / responders at 300 mg/kg: Mus musculus, sc.
Procedure: 2. sc Met--Subcutaneous Pentylenetetrazol (Metrazol^R) Seizure Test
The animal is observed for 30 minutes. Failure to observe even a threshold seizure (a single episode of clonic spasms of at least 5 seconds duration) is defined as protection and the results are expressed as the number of animals protected/the number of animals tested.
The test system of the next data set is seizures. Put plainly: Anticonvulsant evaluation (ASP phase I / overall). It is filed as in vivo, mice. The conditions noted are these: Mus musculus, ip, read-out: ASP Classification. A digest of the protocol: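 Male Carworth Farms #1 mice; maximal electroshock seizures elicited by 60-cycle AC, 50 mA, 0.2 s via corneal electrodes after a drop of 0.9% saline in the eye. Animals observed for 30 minutes.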

[6] abbreviates: 0.5 h, read-out: MES, animals protected/tested.
[7] abbreviates: 4 h, read-out: MES, animals protected/tested.
Where [8] appears, read: 0.5 h, read-out: scMet, animals protected/tested.
[9] abbreviates: 4 h, read-out: scMet, animals protected/tested.
The mark [10] stands for this setting: 0.5 h, oral, 50 mg/kg, 0.50 h, read-out: MES, animals protected/tested (converted).
[11] abbreviates: oral, 50 mg/kg, 0.25 h, read-out: MES, animals protected/tested (converted).
[12] abbreviates: oral, 50 mg/kg, 1.00 h, read-out: MES, animals protected/tested (converted).
[13] abbreviates: oral, 50 mg/kg, 2.00 h, read-out: MES, animals protected/tested (converted).
[14] abbreviates: 0.5 h, 100 mg/kg, 30 min, read-out: MES, animals protected/tested (converted).
[15] abbreviates: 0.5 h, 300 mg/kg, 30 min, read-out: MES, animals protected/tested.
[16] abbreviates: 0.5 h, Phase II, 0.50 h, read-out: MES, animals protected/tested.
The mark [17] stands for this setting: 0.5 h, Phase II, 0.50 h, read-out: MES, animals protected/tested (converted).
The mark [18] stands for this setting: 4 h, 100 mg/kg, 4 h, read-out: MES, animals protected/tested (converted).
[19] abbreviates: 4 h, 300 mg/kg, 4 h, read-out: MES, animals protected/tested.
Setting [20] is: 0.5 h, 100 mg/kg, 30 min, read-out: scMet, animals protected/tested (converted).
The mark [21] stands for this setting: 0.5 h, 300 mg/kg, 30 min, read-out: scMet, animals protected/tested (converted).
Setting [22] is: 4 h, 100 mg/kg, 4 h, read-out: scMet, animals protected/tested (converted).
Setting [23] is: 4 h, 300 mg/kg, 4 h, read-out: scMet, animals protected/tested (converted).
[24] abbreviates: oral, 50 mg/kg, 4.00 h, read-out: MES, animals protected/tested (converted).

Read-outs that look alike come from different tables or passages of the source.

As for `O=C1C=C(NCCc2ccccc2)CCC1` [Compound 154], the “MES, animals protected/tested” value in data set [1] (oral, 50 mg/kg, 0.25 h) was 0/4; in data set [1] (oral, 50 mg/kg, 0.50 h), 0/4; in data set [1] (oral, 50 mg/kg, 1.00 h), 0/4; in data set [1] (oral, 50 mg/kg, 2.00 h), 0/4; in data set [1] (oral, 50 mg/kg, 4.00 h), 0/4; in data set [2] (300 mg/kg, 30 min), 1/1. In addition, the “MES, animals protected/tested” value was 0/1 in data set [2] (300 mg/kg, 4 h); 2/2 in data set [2] (Phase II, 100 mg/kg, 0.25 h); 0/2 in data set [2] (Phase II, 100 mg/kg, 1.00 h). The “Tox, animals toxic/tested” value in “in vivo [3]” was 0/4. Besides, in “in vivo [4]” (mouse, in vivo, 100 mg/kg), the “Tox (rotorod), animals toxic/tested” value is 0/2. The “scMet, animals protected/tested” value is recorded as 0/1 in data set [5] (300 mg/kg, 30 min) and 0/1 in data set [5] (300 mg/kg, 4 h).

For the molecule `O=C1C=C(NCCc2ccccc2)CCC1` [Compound 149], the responders at 50 mg/kg in data set [1] (po, 0.25 h, read-out: MES, animals protected/tested) was 100%; in data set [1] (po, 0.5 h, read-out: MES, animals protected/tested), 100%; in data set [1] (po, 1 h, read-out: MES, animals protected/tested), 75%; in data set [1] (po, 2 h, read-out: MES, animals protected/tested) it was 25%; in data set [1] (po, 4 h, read-out: MES, animals protected/tested), 25%. Also, in the data set on seizures, the minimal effective dose was less than 100 mg/kg. Moreover, the responders at 100 mg/kg in data set [2] (setting [6]) is 100%; in data set [2] (setting [7]) it was 0%; in data set [5] (setting [8]) it was 0%; in data set [5] (setting [9]), 0%. Besides, the responders at 300 mg/kg is 100% in data set [2] (setting [6]), 0% in data set [2] (setting [7]) and 0% in data set [5] (setting [9]). In addition, the “Tox, animals exhibiting toxicity/tested” value is 4/8 in “in vivo [4]” (100 mg/kg, 30 min); 0/4 in “in vivo [4]” (100 mg/kg, 4 h); 1/2 in “in vivo [4]” (300 mg/kg, 4 h).

As to `COC(=O)C1C(=O)C=C(Nc2ccc(C(F)(F)F)cc2)CC1(C)C` (stereo not drawn) [Compound 121], the responders at 50 mg/kg was 75% in data set [1] (setting [10]), 75% in data set [1] (setting [11]), 100% in data set [1] (setting [12]) and 100% in data set [1] (setting [13]). In the data set with seizures (Phase I), the minimal effective dose is less than 100 mg/kg. Moreover, the responders at 100 mg/kg in data set [2] (setting [14]) was 100%; in data set [2] (setting [18]), 100%; in data set [5] (setting [20]), 0%; in data set [5] (setting [22]) it was 0%. In addition, the responders at 300 mg/kg in data set [2] (setting [15]) was 100%; in data set [2] (setting [19]), 100%; in data set [5] (setting [21]), 0%; in data set [5] (setting [23]), 0%. Further, the responders at 3 mg/kg in data set [2] (setting [16]) worked out at 0%. The responders at 10 mg/kg in data set [2] (setting [17]) is 0%. Also, the “Tox, animals toxic/tested” value in the data set “in vivo [3]” is recorded as 0/4. Further, the “Tox (rotorod), animals toxic/tested” value in “in vivo [4]” (mouse, in vivo, 3 mg/kg) is reported as 0/4; in the data set “in vivo [4]” (mouse, in vivo, 10 mg/kg), 0/4.

For `CCOC(=O)C1C(=O)C=C(Nc2ccc([N+](=O)[O-])cc2)CC1C` (stereo not drawn) [Compound 127], the responders at 50 mg/kg in data set [1] (setting [10]) is 50%; in data set [1] (setting [11]) it was 25%; in data set [1] (setting [12]), 100%; in data set [1] (setting [13]), 50%; in data set [1] (setting [24]), 25%. Further, in the data set with seizures (Phase I), the minimal effective dose was less than 100 mg/kg. The responders at 100 mg/kg in data set [2] (setting [14]) was 100%; in data set [2] (setting [18]), 0%; in data set [5] (setting [20]), 0%; in data set [5] (setting [22]), 0%. The responders at 300 mg/kg in data set [2] (setting [15]) is 100%; in data set [2] (setting [19]), 0%; in data set [5] (0.5 h, 300 mg/kg, 30 min, second trial, read-out: scMet, animals protected/tested (converted)), 50%; in data set [5] (setting [21]), 100%; in data set [5] (setting [23]), 0%. Also, the responders at 3 mg/kg in data set [2] (setting [16]) was found to be 0%. The responders at 10 mg/kg in data set [2] (setting [17]) was 0%. Moreover, in “in vivo [3]”, the “Tox, animals toxic/tested” value is recorded as 0/4. Besides, the “Tox (rotorod), animals toxic/tested” value in the data set “in vivo [4]” (mouse, in vivo, 3 mg/kg) is 0/4; in the data set “in vivo [4]” (mouse, in vivo, 10 mg/kg) it was 0/4.

Take `CCOC(=O)C1C(=O)C=C(Nc2ccc(Br)cc2)CC1C` (stereo not drawn) [Compound 123]: the responders at 50 mg/kg in data set [1] (setting [10]), in data set [1] (setting [11]), in data set [1] (setting [12]), in data set [1] (setting [13]) and in data set [1] (setting [24]) was 100% throughout. Moreover, the minimal effective dose in the data set on seizures (Phase I) is less than 100 mg/kg. The responders at 10 mg/kg in data set [2] (0.25 h, mice ip, 0.25 h, read-out: MES, animals protected/tested (converted)) was 75%; in data set [2] (0.5 h, mice ip, 0.50 h, read-out: MES, animals protected/tested (converted)), 75%; in data set [2] (1 h, mice ip, 1.00 h, read-out: MES, animals protected/tested (converted)) it was 75%; in data set [2] (2 h, mice ip, 2.00 h, read-out: MES, animals protected/tested (converted)), 50%; in data set [2] (4 h, mice ip, 4.00 h, read-out: MES, animals protected/tested (converted)), 0%. Further, the responders at 100 mg/kg in data set [2] (setting [14]) is 100%; in data set [2] (setting [18]) it was 66.7%; in data set [5] (setting [20]), 0%; in data set [5] (setting [22]), 0%. Further, the responders at 300 mg/kg in data set [2] (setting [15]) was 100%; in data set [2] (setting [19]), 100%; in data set [5] (setting [21]) it was 0%; in data set [5] (setting [23]) it was 0%. The “anti-MES protecting ability” value in data set [2] (Phase I) is recorded as “showed anti-MES protecting ability”. Besides, the “Tox, animals toxic/tested” value in “in vivo [3]” is 0/4; in the data set “in vivo [4]” (mouse, in vivo, ip, 100 mg/kg), 0/8.

Regarding `CCOC(=O)C1C(=O)C=C(Nc2cc(OC)ccc2OC)CC1C` (stereo not drawn) [Compound 128], the minimal effective dose with seizures (Phase I) was greater than 100 mg/kg. The responders at 100 mg/kg is 0% in data set [2] (0.25 h, Phase II, 100 mg/kg, 0.25 h, read-out: MES, animals protected/tested (converted)) and 0% in data set [2] (1 h, Phase II, 100 mg/kg, 1.00 h, read-out: MES, animals protected/tested (converted)). Further, the responders at 300 mg/kg in data set [2] (setting [15]) is 100%; in data set [2] (setting [19]), 0%; in data set [5] (setting [21]) it was 0%; in data set [5] (setting [23]), 0%. In the data set “in vivo [4]” (mouse, in vivo, 100 mg/kg), the “Tox (rotorod), animals toxic/tested” value is 0/2.

For `CC1(C)CC(=O)C=C(NCCc2ccccc2)C1` [Compound 145], the minimal effective dose with seizures is greater than 100 mg/kg. The responders at 100 mg/kg in data set [2] (0.25 h, read-out: MES, animals protected/tested) is 0%; in data set [2] (1 h, read-out: MES, animals protected/tested), 0%. Also, the responders at 300 mg/kg in data set [2] (setting [6]) was found to be 100%; in data set [2] (setting [7]), 0%; in data set [5] (setting [8]), 0%; in data set [5] (setting [9]), 0%. For the same molecule, the “Tox, animals exhibiting toxicity/tested” value in “in vivo [4]” (300 mg/kg, 30 min) was 4/4; in the data set “in vivo [4]” (300 mg/kg, 4 h), 0/2. For the same molecule, the “Tox (rotorod), animals toxic/tested” value in “in vivo [4]” (Phase II, 100 mg/kg, 0.25 h) was 0/2; in “in vivo [4]” (Phase II, 100 mg/kg, 1.00 h) it was 0/2.

The values above are taken from patent US5616615A, “Enaminone esters” (priority 1995, dated 1997).
